The values that follow come from publication PMC9814779, “A triple farnesoid X receptor and peroxisome proliferator-activated receptor α/δ activator reverses hepatic fibrosis in diet-induced NASH in mice” (Communications Chemistry, 2020).

Data set [1] in a line: Microsomal stability assay. To be noted: 10 μM, rat liver microsomes, 37 °C; 41 n = 3, 7-EC n = 1. The data set is classed as in vitro ADME, rat. Background: Microsomes from liver hold many membrane-bound enzymes, among them those of drug oxidation.
The target of data set [2] is T1, human PPARα ligand-binding domain (Gal4 chimera) (Homo sapiens, UniProt Q07869).
T1 construct: coding for the hinge region and LBD of the canonical isoform of the respective nuclear receptor; expressed in transfected cells; host or cells: HEK293T
T1 sequence (Q07869 239-466 limits assumed): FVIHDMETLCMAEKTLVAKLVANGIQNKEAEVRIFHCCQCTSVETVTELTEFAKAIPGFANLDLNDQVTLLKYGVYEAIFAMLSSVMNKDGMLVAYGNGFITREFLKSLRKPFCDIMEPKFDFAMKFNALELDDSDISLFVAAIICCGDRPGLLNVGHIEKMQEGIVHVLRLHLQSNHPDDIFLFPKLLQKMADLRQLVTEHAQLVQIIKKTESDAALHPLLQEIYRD
Kind of data set: Gal4 hybrid reporter gene assay, PPARα. The data set is classed as cell-based. Conditions: EC50 [μM] PPARα, HEK293T; mean ± SEM, n = 3. (In general: In a reporter assay the amount or activity of a reporter protein is the signal.)

The target of data set [3] is T2, human FXR:retinoid X receptor (RXR) heterodimer (Homo sapiens, UniProt Q96RI1).
T2 construct: pcDNA3-hFXR[32] and pSG5-hRXR[33] served for receptor overexpression in the full-length FXR assay; expressed in transfected cells; host or cells: HeLa
Kind of data set: Full-length FXR reporter gene assay (BSEP response element) in HeLa cells. The data set is classed as cell-based. Set-up: Emax: dose or concentration left out as unconfirmed. To be noted: HeLa; for Emax: read-out: max. rel. act. FXR; for EC50: mean ± SEM, n = 3, read-out: EC50 [μM] FXR.

In data set [4] the target is T3, human PPARγ ligand-binding domain (Gal4 chimera) (Homo sapiens, UniProt P37231).
T3 construct: coding for the hinge region and LBD of the canonical isoform of the respective nuclear receptor; expressed in transfected cells; host or cells: HEK293T
T3 sequence (P37231 238-503 limits assumed): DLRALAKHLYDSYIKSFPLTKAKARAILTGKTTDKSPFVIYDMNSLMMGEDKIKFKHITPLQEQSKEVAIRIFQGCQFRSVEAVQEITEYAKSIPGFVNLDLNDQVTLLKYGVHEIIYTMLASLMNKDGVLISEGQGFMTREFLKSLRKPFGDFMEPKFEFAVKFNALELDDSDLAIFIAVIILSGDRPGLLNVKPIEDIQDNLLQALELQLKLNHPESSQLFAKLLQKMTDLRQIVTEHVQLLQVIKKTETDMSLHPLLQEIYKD
Kind of data set: Gal4 hybrid reporter gene assay, PPARγ. The data set is classed as cell-based. Set-up: Emax: dose or concentration left out as unconfirmed. Conditions: for EC50: HEK293T, mean ± SEM, n = 3, read-out: EC50 [μM] PPARγ; for Emax: read-out: max. rel. act. PPARγ.

In data set [5] the target is T4, human PPARδ ligand-binding domain (Gal4 chimera) (Homo sapiens, UniProt Q03181).
T4 construct: coding for the hinge region and LBD of the canonical isoform of the respective nuclear receptor; expressed in transfected cells; host or cells: HEK293T
T4 sequence (Q03181 211-439 limits assumed): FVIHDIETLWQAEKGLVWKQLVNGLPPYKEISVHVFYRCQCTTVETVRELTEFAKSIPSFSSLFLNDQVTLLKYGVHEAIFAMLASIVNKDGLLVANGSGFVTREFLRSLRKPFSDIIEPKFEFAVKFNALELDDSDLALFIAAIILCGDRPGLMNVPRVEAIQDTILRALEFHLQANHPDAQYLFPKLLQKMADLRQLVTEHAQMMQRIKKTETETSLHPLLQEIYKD
Kind of data set: Gal4 hybrid reporter gene assay, PPARδ. The data set is classed as cell-based. Set-up: Emax: dose or concentration left out as unconfirmed. To be noted: for EC50: HEK293T, mean ± SEM, n = 3, read-out: EC50 [μM] PPARδ; for Emax: read-out: max. rel. act. PPARδ.

T2 sequence (P19793 whole entry): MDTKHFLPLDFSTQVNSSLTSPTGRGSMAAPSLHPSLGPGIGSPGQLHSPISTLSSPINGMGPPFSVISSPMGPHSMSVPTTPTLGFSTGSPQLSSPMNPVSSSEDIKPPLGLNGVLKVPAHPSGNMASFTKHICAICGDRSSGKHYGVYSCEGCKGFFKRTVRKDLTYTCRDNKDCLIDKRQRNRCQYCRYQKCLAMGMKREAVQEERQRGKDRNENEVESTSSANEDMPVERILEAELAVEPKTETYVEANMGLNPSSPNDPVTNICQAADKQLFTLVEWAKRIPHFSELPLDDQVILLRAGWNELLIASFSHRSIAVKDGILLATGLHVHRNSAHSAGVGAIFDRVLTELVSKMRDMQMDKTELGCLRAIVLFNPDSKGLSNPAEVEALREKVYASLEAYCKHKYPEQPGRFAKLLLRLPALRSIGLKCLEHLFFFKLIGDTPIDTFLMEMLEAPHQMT
T2 sequence (Q96RI1 whole entry): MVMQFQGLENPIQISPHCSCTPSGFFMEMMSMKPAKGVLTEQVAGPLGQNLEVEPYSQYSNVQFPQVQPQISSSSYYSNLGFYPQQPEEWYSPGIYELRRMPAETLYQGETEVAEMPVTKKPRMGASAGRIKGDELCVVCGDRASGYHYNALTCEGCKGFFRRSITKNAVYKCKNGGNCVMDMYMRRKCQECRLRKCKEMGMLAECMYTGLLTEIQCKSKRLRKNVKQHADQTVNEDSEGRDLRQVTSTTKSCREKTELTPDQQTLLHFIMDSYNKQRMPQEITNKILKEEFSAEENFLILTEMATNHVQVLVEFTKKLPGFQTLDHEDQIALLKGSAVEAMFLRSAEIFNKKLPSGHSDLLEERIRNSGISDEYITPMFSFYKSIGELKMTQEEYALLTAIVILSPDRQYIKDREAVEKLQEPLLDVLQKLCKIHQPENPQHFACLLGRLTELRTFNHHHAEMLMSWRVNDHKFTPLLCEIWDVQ

Take `CCOc1ccc2ccc(=O)oc2c1` [7-EC, 7-Ethoxycoumarin, reference compound]: in data set [1], the “percent of remaining compound, 15 min” value is on record as 87%; the “percent of remaining compound, 30 min” value is on record as 75%; the “percent of remaining compound, 60 min” value is recorded as 55%.

The term EC50 denotes the concentration giving half of the maximal effect. As for `O=C(O)CCc1cccc(NC(=O)c2ccccc2NC(=O)c2ccc(-c3cnco3)cc2)c1` [compound 38], the half-maximal effective concentration (EC50) in data set [2] was above 30 µM; in data set [3] it was 15 ± 4 µM; in data set [4], 5.3 ± 0.2 µM; in data set [5], 12 ± 1 µM. Further, the Emax is 53% in data set [3], 16% in data set [4] and 32% in data set [5].

For `O=C(O)CCc1cccc(NC(=O)c2ccccc2NC(=O)c2ccc(-n3ccnn3)cc2)c1` [compound 39], the EC50 in data set [2] is above 10 µM; in data set [3], above 10 µM; in data set [4], above 30 µM; in data set [5], above 10 µM.

`COc1ccc(C(=O)Nc2cccc(NCC(=O)O)c2)c(NC(=O)c2ccc(-c3ccoc3)cc2)c1` [compound 40, (3-[2-{4-(3-Furyl)benzamido}-4-methoxybenzamido]phenyl)glycine]: the EC50 is above 30 µM in data set [2], 0.29 ± 0.01 µM in data set [3], 7.7 ± 0.5 µM in data set [4] and 1.6 ± 0.1 µM in data set [5]. The Emax is 43% in data set [3], 9% in data set [4] and 54% in data set [5].
